Laboratory results published in patent publication US20120252729A1, “PTH-CONTAINING THERAPEUTIC/PROPHYLACTIC AGENT FOR OSTEOPOROSIS, CHARACTERIZED IN THAT PTH IS ADMINISTERED ONCE A WEEK IN A UNIT DOSE OF 100 TO 200 UNITS” (ASAHI KASEI PHARMA CORPORATION, priority 2009, published 2012).

How the values were obtained:
[1] = system: nausea and vomiting associated with administration of the test drug; assay: Working Example 2: prescriptions for nausea and vomiting associated with administration of the test drug; details: given before test drug
Excerpt: The administration period and efficacy of various drugs to treat nausea and vomiting associated with administration of the test drug were studied.

[2] = PTH 20 μg/day; blood samples 4 to 6 hours after administration; cited from earlier work
[3] = system: patients having prednisone-induced osteoporosis complicated by arthralgia; details: daily administration; cited from earlier work

In the case of `O=c1[nH]c2ccccc2n1CCCN1CCC(n2c(=O)[nH]c3cc(Cl)ccc32)CC1` [Nauzelin, domperidone], the Effective or ineffective ([1]; event: nausea) is reported as “Effective” and the Effective or ineffective ([1]; event: vomiting) is reported as “Effective”.
In the case of “PTH: PTH (parathyroid hormone) preparation given daily (20 μg/day) in cited osteoporosis trials”, the Patients with hypercalcemia [2] is listed as 11% and the “Patients with persistent hypercalcemia” value [2] is listed as 3%.
For `CC[C@H](C)[C@H](NC(=O)[C@H](CCC(=O)O)NC(=O)[C@H](CO)NC(=O)[C@@H](NC(=O)[C@@H](N)CO)C(C)C)C(=O)N[C@@H](CCC(N)=O)C(=O)N[C@@H](CC(C)C)C(=O)N[C@@H](CCSC)C(=O)N[C@@H](Cc1cnc[nH]1)C(=O)N[C@@H](CC(N)=O)C(=O)N[C@@H](CC(C)C)C(=O)NCC(=O)N[C@@H](CCCCN)C(=O)N[C@@H](Cc1cnc[nH]1)C(=O)N[C@@H](CC(C)C)C(=O)N[C@@H](CC(N)=O)C(=O)N[C@@H](CO)C(=O)N[C@@H](CCSC)C(=O)N[C@@H](CCC(=O)O)C(=O)N[C@@H](CCCN=C(N)N)C(=O)N[C@H](C(=O)N[C@@H](CCC(=O)O)C(=O)N[C@@H](Cc1c[nH]c2ccccc12)C(=O)N[C@@H](CC(C)C)C(=O)N[C@@H](CCCN=C(N)N)C(=O)N[C@@H](CCCCN)C(=O)N[C@@H](CCCCN)C(=O)N[C@@H](CC(C)C)C(=O)N[C@@H](CCC(N)=O)C(=O)N[C@@H](CC(=O)O)C(=O)N[C@H](C(=O)N[C@@H](Cc1cnc[nH]1)C(=O)N[C@@H](CC(N)=O)C(=O)N[C@@H](Cc1ccccc1)C(=O)O)C(C)C)C(C)C` [Forteo, teriparatide (rDNA origin)], the “Bone strengthening effect compared with Fosamax” value [3] is given as “stronger bone strengthening effect than Fosamax”.
